Activity calls are given as the source filed them. The rule behind the calls is not given here.
Biological target: Botulinum neurotoxin type F (Clostridium botulinum) (UniProt P30996)
Assay: BoNT/F light chain protease inhibitor potency, dose response, biochemical, cherry pick 1 compounds (AID 602177)
Conditions: multiplex microsphere protease cleavage assay, BoNT/F LC

## Oc1[nH]c(N=C2N=c3ccccc3=N2)c2ccccc12
  EC50: > 20 µM (inactive)

From PubChem BioAssay AID602177 (NMMLSC, 2012)
